# Data published in PubChem BioAssay (NCI).
#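 Compound exposure: 48 hours, 5 concentrations, 96-well plates. Definition used: TGI = concentration required for complete inhibition of growth.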
# Legend:
# Assay in all cases: NCI-60 cell line screen, 48 h
# OVCAR-8 ovarian = test system: OVCAR-8 ovarian
# HT29 colon = test system: HT29 colon
# HCT-15 colon = test system: HCT-15 colon
# OVCAR-5 ovarian = test system: OVCAR-5 ovarian
# UACC-257 melanoma = test system: UACC-257 melanoma
# SK-MEL-5 melanoma = test system: SK-MEL-5 melanoma
# HCC-2998 colon = test system: HCC-2998 colon
# UACC-62 melanoma = test system: UACC-62 melanoma
# RPMI-8226 leukemia = test system: RPMI-8226 leukemia
# SR leukemia = test system: SR leukemia
Compound,TGI (OVCAR-8 ovarian) [µM],TGI (HT29 colon) [µM],TGI (HCT-15 colon) [µM],TGI (OVCAR-5 ovarian) [µM],TGI (UACC-257 melanoma) [µM],TGI (SK-MEL-5 melanoma) [µM],TGI (HCC-2998 colon) [µM],TGI (UACC-62 melanoma) [µM],TGI (RPMI-8226 leukemia) [µM],TGI (SR leukemia) [µM]
O=S(=O)(c1ccc(Br)cc1)n1c2ccc(Br)cc2c2nc3ccccc3nc21,> 100,> 100,> 100,> 100,> 100,> 100,> 100,> 100,> 100,
C/C=C/[C@@]1(OC(=O)c2ccccc2)C[C@@H]2CCCC[C@@H]21,34.7,31.7,36.9,30.8,34.1,29.3,44.3,32.9,38.5,37.9
CO/C(=N\N=C\c1cc(OC)ccc1OC)c1ccncc1,> 10,,> 10,> 10,,> 10,> 10,,> 10,> 10
CN(C)CCNc1ccc(C(=O)NCCCN(C)CCCNC(=O)c2ccc(NCCN(C)C)c3c(=O)c4ccccc4[nH]c23)c2[nH]c3ccccc3c(=O)c12,2.39,0.903,38.5,1.1,3.25,1.06,0.135,0.776,0.229,
CCOC(=O)c1cnc(-n2[nH]c(C)c(CCO)c2=O)[nH]c1=O,> 100,> 100,> 100,> 100,> 100,> 100,> 100,> 100,> 100,
CC1=NN(c2nc(N)nc(-c3ccccc3S(N)(=O)=O)n2)C(C)(C)C1,> 100,> 100,> 100,> 100,> 100,> 100,> 100,,> 100,68.5
O=C1CSC2(CC(/C=C/c3ccccc3)=NN2c2cccc(S(=O)(=O)O)c2)N1c1nc2ccccc2s1 (stereo unspecified),35.8,> 100,> 100,56.5,> 100,> 100,> 100,45.2,53.7,61
CC12CC3C(CC1SCC(=O)O2)C3(C)C (stereo unspecified),> 100,> 100,> 100,> 100,> 100,> 100,> 100,,> 100,
O=C(Cn1c(=O)oc2ccc(C(=O)c3ccc(F)cc3)cc21)c1ccc([N+](=O)[O-])cc1,> 100,> 100,> 100,> 100,> 100,34,37.9,> 100,> 100,> 100
CC[C@@]1(O)C(=O)OCc2c1cc1n(c2=O)Cc2c-1nc1ccccc1c2/C=N\NC(=O)C(N)CC(C)C (stereo partly specified),1.44,> 100,> 36.2,> 68.6,1.81,0.0807,6.17,0.0748,3.71,< 0.0109
C=C(C)[C@@]1(O)O[C@H]2C[C@@]3(C)OC(=CC3=O)/C(C)=C\[C@@H]3OC(=O)[C@@]1(C)[C@H]32,> 100,40.9,44,19.7,> 63.5,30.5,35.1,35.7,> 58.1,> 64.4
